The test system of data set [1] is U-937. Briefly: Induction of apoptosis in human U-937 cells assessed as necrotic cells at 30 nM measured after 24 hr by Annexin V-FITC/7AAD staining based flow cytometry (reference value: 3.52%). The data set is classed as functional. Background: In flow cytometry, cells or beads pass a laser one at a time.
A short description of data set [2]: Downregulation of SYIC level in human U-937 cells assessed as fold change at 0.1 uM measured after 6 hrs. Format: functional.
Data set [3] relates to U-937. The experiment in a line: Induction of apoptosis in human U-937 cells assessed as viable cells at 30 nM measured after 24 hr by Annexin V-FITC/7AAD staining based flow cytometry (reference value: 93.55%). Format: functional. Conditions: read-out: Activity.
Data set [4] relates to U-937. Briefly: Induction of cell cycle arrest in human U-937 cells assessed as accumulation of cells at G0/G1 phase at 100 nM measured after 24 hrs by propidium iodide staining based flow cytometry analysis (reference value: 61.09%). Format: functional.
The test system of data set [5] is U-937. Briefly: Induction of cell cycle arrest in human U-937 cells assessed as accumulation of cells at G0/G1 phase at 30 nM measured after 24 hrs by propidium iodide staining based flow cytometry analysis (reference value: 61.09%). The data set is classed as functional.
In data set [6] the target is Protein cereblon/Zinc finger protein Aiolos (Homo sapiens) (UniProt Q96SW2+Q9UKT9). The experiment in a line: PROTAC activity at CRBN/IKZF3 in human U-937 cells at upto 300 nM. The data set is classed as cell-based.
Data set [7] deals with U-937. Briefly: Induction of cell cycle arrest in human U-937 cells assessed as accumulation of cells at G2/M phase at 10 nM measured after 24 hrs by propidium iodide staining based flow cytometry analysis (reference value: 32.33%). The data set is classed as functional.
Data set [8] has as its system U-937. The experiment in a line: Induction of apoptosis in human U-937 cells assessed as viable cells at 10 nM measured after 24 hr by Annexin V-FITC/7AAD staining based flow cytometry (reference value: 93.55%). Conditions: read-out: Activity. The data set is classed as functional.
Data set [9] can be described thus: Downregulation of GSPT1 level in human U-937 cells assessed as fold change at 0.1 uM measured after 6 hrs. The data set is classed as functional.
Data set [10] has as its system U-937. Briefly: Downregulation of CDK6 level in human U-937 cells measured after 24 hrs by Western blot analysis. Format: functional, cell-based. Conditions: dose 10-100 nM.
Data set [11] concerns U-937. Briefly: Induction of cell cycle arrest in human U-937 cells assessed as accumulation of cells at G2/M phase at 30 nM measured after 24 hrs by propidium iodide staining based flow cytometry analysis (reference value: 32.33%). The data set is classed as functional.
For data set [12], the system named is U-937. Briefly: Induction of cell cycle arrest in human U-937 cells assessed as accumulation of cells at S phase at 100 nM measured after 24 hrs by propidium iodide staining based flow cytometry analysis (reference value: 6.38%). Format: functional.
Data set [13] has as its system U-937. The experiment in a line: Induction of apoptosis in human U-937 cells assessed as early apoptotic cells at 10 nM measured after 24 hr by Annexin V-FITC/7AAD staining based flow cytometry (reference value: 1.44%). The data set is classed as functional.
A short description of data set [14]: Cmax in ip dosed Sprague-Dawley rat. Format: ADME, organism-based. Conditions: in vivo.
In data set [15] the test system is U-937. The experiment in a line: Upregulation of caspase-9 level in human U-937 cells measured after 24 hrs by Western blot analysis. Conditions: dose 10-100 nM. Format: functional, cell-based. Background: In western blotting, separated proteins are transferred to a membrane and probed.
The next data set concerns MV4-11. The experiment in a line: Antiproliferative activity against human MV4-11 cells measured after 72 hrs by CCK-8 method. Format: functional, cell-based. Conditions: MV4-11, 72 h.
For data set [16], the system named is U-937. The experiment in a line: Induction of apoptosis in human U-937 cells assessed as late apoptotic cells at 100 nM measured after 24 hr by Annexin V-FITC/7AAD staining based flow cytometry (reference value: 1.49%). The data set is classed as functional.
The test system of data set [17] is U-937. Briefly: Downregulation of cyclin B1 level in human U-937 cells measured after 24 hrs by Western blot analysis. The data set is classed as functional, cell-based. Conditions: dose 10-100 nM.
For data set [18], the system named is U-937. Briefly: Induction of apoptosis in human U-937 cells assessed as late apoptotic cells at 10 nM measured after 24 hr by Annexin V-FITC/7AAD staining based flow cytometry (reference value: 1.49%). The data set is classed as functional.

Broadly, the Cmax is the peak of the concentration-time curve. As usually defined, the IC50 is the concentration needed to halve the response being measured.

Active and inactive are the calls of the source. No cut-off for these calls is given here.

Protein cereblon/Zinc finger protein Aiolos (Homo sapiens), sequence (Q96SW2 whole entry, looked up): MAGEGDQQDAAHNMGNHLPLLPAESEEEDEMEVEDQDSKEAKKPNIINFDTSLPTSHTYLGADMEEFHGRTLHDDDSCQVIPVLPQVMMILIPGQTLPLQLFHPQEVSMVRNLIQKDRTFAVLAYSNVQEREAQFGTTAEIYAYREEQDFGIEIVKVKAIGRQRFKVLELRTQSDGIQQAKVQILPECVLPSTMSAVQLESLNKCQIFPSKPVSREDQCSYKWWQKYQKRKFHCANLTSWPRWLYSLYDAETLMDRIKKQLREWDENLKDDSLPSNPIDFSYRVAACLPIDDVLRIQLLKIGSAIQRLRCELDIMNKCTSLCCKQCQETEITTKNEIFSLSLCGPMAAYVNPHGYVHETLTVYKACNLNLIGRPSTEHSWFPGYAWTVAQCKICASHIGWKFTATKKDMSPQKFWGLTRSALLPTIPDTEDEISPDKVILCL
Protein cereblon/Zinc finger protein Aiolos (Homo sapiens), sequence (Q9UKT9 whole entry, looked up): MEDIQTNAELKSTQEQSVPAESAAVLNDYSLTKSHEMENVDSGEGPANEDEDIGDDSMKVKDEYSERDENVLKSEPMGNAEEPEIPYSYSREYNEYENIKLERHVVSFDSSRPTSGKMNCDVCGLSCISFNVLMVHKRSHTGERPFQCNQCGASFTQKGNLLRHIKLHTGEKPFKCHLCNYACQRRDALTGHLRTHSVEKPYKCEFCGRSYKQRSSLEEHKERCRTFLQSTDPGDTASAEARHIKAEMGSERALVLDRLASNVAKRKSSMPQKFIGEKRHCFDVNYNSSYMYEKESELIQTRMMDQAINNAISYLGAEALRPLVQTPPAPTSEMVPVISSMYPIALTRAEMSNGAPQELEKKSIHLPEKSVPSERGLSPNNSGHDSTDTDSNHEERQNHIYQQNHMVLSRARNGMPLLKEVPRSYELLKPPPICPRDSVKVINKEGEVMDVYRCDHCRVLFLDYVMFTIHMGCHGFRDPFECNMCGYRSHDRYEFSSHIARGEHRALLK

With `COCCN(C)Cc1cc(NC(=O)CCc2ccc3c(c2)C(=O)N(C2CCC(=O)NC2=O)C3)cc(Cl)c1C` (centres undefined), the Activity in the data set with U-937 [1] was 5.84%; in the data set on U-937 [4], 71.09%; in the data set on U-937 [5], 63.89%; in the data set on U-937 [7] it was 31.72%; in the data set on U-937 [10], “Dose-Dependent Effect”; in the data set with U-937 [11] it was 26.07%. Also, the Activity with U-937 [12] is 6.73%; in the data set on U-937 [13], 1.9%; with U-937 [15], “Dose-Dependent Effect”; in the data set with U-937 [16], 27.48%; in the data set with U-937 [17], “Dose-Dependent Effect”; in the data set on U-937 [18], 2.34%. Further, the “log(activity)” value in data set [2] and in data set [9] was -3.32 throughout. Further, the viability at 0.03 µM in the data set on U-937 [3] came to 65.5%. Also, the outcome in [6] was inactive. Further, the viability at 0.01 µM in the data set on U-937 [8] stood at 93.2%. Further, the concentration in [14] peaked (Cmax) at 4270 ng/mL. In addition, half-maximal inhibition in the data set on MV4-11 (IC50) required 27 nM.

Source of the values: ChEMBL document CHEMBL5620419, “Discovery of new Lenalidomide derivatives as potent and selective GSPT1 degraders” (Eur J Med Chem, 2023).
